The text below walks through data of patent US12391692B2, “Spiro ring-containing quinazoline compound” (WIGEN BIOMEDICINE TECHNOLOGY (SHANGHAI) CO., LTD., priority 2020, dated 2025).

Structures are written as SMILES.

For the first experiment, the system named is H358 cells. In words: Antiproliferative activity against H358 cells (Cell Titer Glow, ultra-low attachment plate). The class given is cell-based. As to conditions: Homo sapiens, NCI-H358, 72 h, three days after addition of compound. As to the method: 2500 H358 cells were seeded in a 96-well ultra-low attachment plate (corning, 7007). After one day of growth, a serially diluted compound (a maximum concentration of 5 μM, 5-fold dilution, a total of five doses) was added. Three days after the addition of the compound, Cell Titer Glow (Promega, G9681) was added to evaluate pellet growth, and the IC50 value was calculated.
Broadly, the IC50 is the concentration needed to halve the response being measured. Lower therefore signals greater potency in that assay. Molecule `C=CC(=O)N1CC2(CCN(c3nc(N4CC(N5CC6(CC6)C5)C4)nc4c(OCC)c(-c5c(C)ccc6[nH]ncc56)c(C5CC5)cc34)CC2)C1` [Compound 97] had an IC50 of under 300 nM.

`C=CC(=O)N1CC2(CCN(c3nc(N4CC(N5CC6(CC6)C5)C4)nc4c(OCC(F)F)c(-c5c(C)ccc6[nH]ncc56)c(C5CC5)cc34)CC2)C1` [Compound 98] yielded an IC50 of under 300 nM.

In turn, `C=CC(=O)N1CC2(CCN(c3nc(N4CC(N5CC6(CC6)C5)C4)nc4c(O[C@@H](C)C(F)(F)F)c(-c5c(C)ccc6[nH]ncc56)c(C5CC5)cc34)CC2)C1` [Compound 99] gave an IC50 of under 300 nM.

As to `C=CC(=O)N1CC2(CCN(c3nc(N4CC(N5CC6(CC6)C5)C4)nc4c(OCC(F)(F)F)c(-c5c(C)ccc6[nH]ncc56)c(C=C)cc34)CC2)C1` [Compound 100], the IC50 was under 300 nM.

Molecule `C=CC(=O)N1CC2(C1)CN(c1nc(N3CC(N4CC5(CC5)C4)C3)nc3c(OCC(F)(F)F)c(-c4c(C)ccc5[nH]ncc45)c(C4CC4)cc13)C2` [Compound 101] had an IC50 of under 300 nM.

The molecule `C=CC(=O)N1CCC2(CC1)CN(c1nc(N3CC(N4CC5(CC5)C4)C3)nc3c(OCC(F)(F)F)c(-c4c(C)ccc5[nH]ncc45)c(C4CC4)cc13)C2` [Compound 102] yielded an IC50 of under 300 nM.

Molecule `C=CC(=O)N1CC2(CCN(c3nc(N4CC(N5CC6(CC6)C5)C4)nc4c(OCC(F)(F)F)c(-c5c(C)c(F)cc6[nH]ncc56)c(C5CC5)cc34)CC2)C1` [Compound 104] returned an IC50 of under 300 nM.

`C=CC(=O)N1CC2(CCN(c3nc(N4CC(N5CC6(CC6)C5)C4)nc4c(OCC(F)(F)F)c(-c5c(C)c(C)cc6[nH]ncc56)c(C5CC5)cc34)CC2)C1` [Compound 105] had an IC50 of under 300 nM.

In the case of `C=CC(=O)N1CC2(CCN(c3nc(N4CC(N5CC6(CC6)C5)C4)nc4c(OCC(F)(F)F)c(-c5c(C)ccc6[nH]nc(C)c56)c(C5CC5)cc34)CC2)C1` [Compound 106], the IC50 is under 300 nM.

As to `C=CC(=O)N1CC2(CCN(c3nc(N4CC(N5CC6(CC6)C5)C4)nc4c(OCC(F)(F)F)c(-c5c(C)ccc6[nH]cnc56)c(C5CC5)cc34)CC2)C1` [Compound 107], the IC50 is under 300 nM.

Turning to `C=CC(=O)N1CC2(CCN(c3nc(N4CC(N5CC6(CC6)C5)C4)nc4c(OCC(F)(F)F)c(-c5c(F)ccc6[nH]cnc56)c(C5CC5)cc34)CC2)C1` [Compound 108], the IC50 is under 300 nM.

In the case of `C=CC(=O)N1CC2(CCN(c3nc(N4CC(N5CC6(CC6)C5)C4)nc4c(OCC(F)(F)F)c(-c5c(C)ccc6cn[nH]c56)c(C5CC5)cc34)CC2)C1` [Compound 109], the IC50 was under 300 nM.

In the case of `C=CC(=O)N1CC2(CCN(c3nc(N4CC(N5CC6(CC6)C5)C4)nc4c(OCC(F)(F)F)c(-c5c(F)ccc6cn[nH]c56)c(C5CC5)cc34)CC2)C1` [Compound 110], the IC50 was under 300 nM.

`C=CC(=O)N1CC2(CCN(c3nc(N4CC(N5CC6(CC6)C5)C4)nc4c(OCC(F)(F)F)c(-c5cc(O)cc6ccccc56)c(C5CC5)cc34)CC2)C1` [Compound 111] had an IC50 of 300 to 1000 nM.

Consider `C=CC(=O)N1CC2(CCN(c3nc(N4CC(N5CC6(CC6)C5)C4)nc4c(OCC(F)(F)F)c(-c5c(O)cccc5F)c(C5CC5)cc34)CC2)C1` [Compound 112], for which the 50% inhibitory concentration (IC50) was under 300 nM.

The molecule `C=CC(=O)N1CC2(CCN(c3nc(N4CC(N5CC6(CC6)C5)C4)nc4c(OCC(F)(F)F)c(-c5c(F)cccc5F)c(C5CC5)cc34)CC2)C1` [Compound 113] registered an IC50 of 300 to 1000 nM.

`C=CC(=O)N1CC2(CCN(c3nc(N4CC(N5CCC6(CC6)C5)C4)nc4c(OCC(F)(F)F)c(-c5c(C)ccc6[nH]ncc56)c(CC)cc34)CC2)C1` [Compound 114] returned an IC50 of under 300 nM.

Consider `C=CC(=O)N1CCC2(CC1)CN(c1nc(N3CC(N4CCC5(CC5)C4)C3)nc3c(OCC(F)(F)F)c(-c4c(C)ccc5[nH]ncc45)c(C4CC4)cc13)C2` [Compound 115], for which the IC50 was under 300 nM.

For the next experiment, the system named is pERK level in H358 cells. In words: pERK and ERK protein content assay in H358 cells (ELISA). The format is cell-based. As to conditions: Homo sapiens, NCI-H358, pERK/ERK ratio vs DMSO group, compound 1 μM, 24 h, read-out: Inhibition rate (%). As to the method:
H358 cells were seeded in a 24-well plate. After one day of growth, a test compound (at a concentration of 1 μM) was added. After 24 h of action of the compound, the cells were lysed, and the cell lysate was transferred to a 96-well ELISA plate. The levels of pERK and ERK in the lysate were measured using an ELISA kit (abcam 176660). The ratio of pERK to ERK was calculated and compared with that of the DMSO group, and the percentage of inhibition of pERK activity by the compound was calculated.
For orientation: An ELISA detects its analyte on a solid surface through an enzyme-linked reagent.
The term inhibition denotes the relative decrease from the control value, in per cent. Consider `C=CC(=O)N1CC2(CCN(c3nc(N4CC(N5CC6(CC6)C5)C4)nc4c(OCC)c(-c5c(C)ccc6[nH]ncc56)c(C5CC5)cc34)CC2)C1` [Compound 97], for which the inhibition at 1 µM was over 90%.

Regarding `C=CC(=O)N1CC2(CCN(c3nc(N4CC(N5CC6(CC6)C5)C4)nc4c(OCC(F)F)c(-c5c(C)ccc6[nH]ncc56)c(C5CC5)cc34)CC2)C1` [Compound 98], the inhibition at 1 µM was over 90%.

On to `C=CC(=O)N1CC2(CCN(c3nc(N4CC(N5CC6(CC6)C5)C4)nc4c(O[C@@H](C)C(F)(F)F)c(-c5c(C)ccc6[nH]ncc56)c(C5CC5)cc34)CC2)C1` [Compound 99], for which the inhibition at 1 µM was over 90%.

`C=CC(=O)N1CC2(CCN(c3nc(N4CC(N5CC6(CC6)C5)C4)nc4c(OCC(F)(F)F)c(-c5c(C)ccc6[nH]ncc56)c(C=C)cc34)CC2)C1` [Compound 100]: the inhibition at 1 µM was over 90%.

In the case of `C=CC(=O)N1CC2(C1)CN(c1nc(N3CC(N4CC5(CC5)C4)C3)nc3c(OCC(F)(F)F)c(-c4c(C)ccc5[nH]ncc45)c(C4CC4)cc13)C2` [Compound 101], the inhibition at 1 µM is over 90%.

As for `C=CC(=O)N1CCC2(CC1)CN(c1nc(N3CC(N4CC5(CC5)C4)C3)nc3c(OCC(F)(F)F)c(-c4c(C)ccc5[nH]ncc45)c(C4CC4)cc13)C2` [Compound 102], the inhibition at 1 µM was over 90%.

With `C=CC(=O)N1CC2(CCN(c3nc(N4CC(N5CC6(CC6)C5)C4)nc4c(OCC(F)(F)F)c(-c5c(C)c(F)cc6[nH]ncc56)c(C5CC5)cc34)CC2)C1` [Compound 104], the inhibition at 1 µM is over 90%.

Consider `C=CC(=O)N1CC2(CCN(c3nc(N4CC(N5CC6(CC6)C5)C4)nc4c(OCC(F)(F)F)c(-c5c(C)c(C)cc6[nH]ncc56)c(C5CC5)cc34)CC2)C1` [Compound 105], for which the inhibition at 1 µM is over 90%.

Regarding `C=CC(=O)N1CC2(CCN(c3nc(N4CC(N5CC6(CC6)C5)C4)nc4c(OCC(F)(F)F)c(-c5c(C)ccc6[nH]nc(C)c56)c(C5CC5)cc34)CC2)C1` [Compound 106], the inhibition at 1 µM is over 90%.

For `C=CC(=O)N1CC2(CCN(c3nc(N4CC(N5CC6(CC6)C5)C4)nc4c(OCC(F)(F)F)c(-c5c(C)ccc6[nH]cnc56)c(C5CC5)cc34)CC2)C1` [Compound 107], the inhibition at 1 µM is over 90%.

For `C=CC(=O)N1CC2(CCN(c3nc(N4CC(N5CC6(CC6)C5)C4)nc4c(OCC(F)(F)F)c(-c5c(F)ccc6[nH]cnc56)c(C5CC5)cc34)CC2)C1` [Compound 108], the inhibition at 1 µM is over 90%.

For `C=CC(=O)N1CC2(CCN(c3nc(N4CC(N5CC6(CC6)C5)C4)nc4c(OCC(F)(F)F)c(-c5c(C)ccc6cn[nH]c56)c(C5CC5)cc34)CC2)C1` [Compound 109], the inhibition at 1 µM was over 90%.

In the case of `C=CC(=O)N1CC2(CCN(c3nc(N4CC(N5CC6(CC6)C5)C4)nc4c(OCC(F)(F)F)c(-c5c(F)ccc6cn[nH]c56)c(C5CC5)cc34)CC2)C1` [Compound 110], the inhibition at 1 µM was over 90%.

On to `C=CC(=O)N1CC2(CCN(c3nc(N4CC(N5CC6(CC6)C5)C4)nc4c(OCC(F)(F)F)c(-c5cc(O)cc6ccccc56)c(C5CC5)cc34)CC2)C1` [Compound 111], for which the inhibition at 1 µM is over 90%.

Turning to `C=CC(=O)N1CC2(CCN(c3nc(N4CC(N5CC6(CC6)C5)C4)nc4c(OCC(F)(F)F)c(-c5c(O)cccc5F)c(C5CC5)cc34)CC2)C1` [Compound 112], the inhibition at 1 µM was over 90%.

Regarding `C=CC(=O)N1CC2(CCN(c3nc(N4CC(N5CC6(CC6)C5)C4)nc4c(OCC(F)(F)F)c(-c5c(F)cccc5F)c(C5CC5)cc34)CC2)C1` [Compound 113], the inhibition at 1 µM lay in the range of 50 to 90%.

On to `C=CC(=O)N1CC2(CCN(c3nc(N4CC(N5CCC6(CC6)C5)C4)nc4c(OCC(F)(F)F)c(-c5c(C)ccc6[nH]ncc56)c(CC)cc34)CC2)C1` [Compound 114], for which the inhibition at 1 µM is over 90%.

As to `C=CC(=O)N1CCC2(CC1)CN(c1nc(N3CC(N4CCC5(CC5)C4)C3)nc3c(OCC(F)(F)F)c(-c4c(C)ccc5[nH]ncc45)c(C4CC4)cc13)C2` [Compound 115], the inhibition at 1 µM was over 90%.
